Where two headings read alike, the source gives them in different places.
What was measured:
[1] = test system: kidney disease model rats; experiment: Action to lower blood pressure in kidney disease model rats; format: in vivo, Sprague-Dawley female rats; settings: 20 mg/kg oral
Procedure: (§1) In this Example, an action to lower blood pressure was evaluated. That is, each of 2-ethoxy-1-[[4'- (2'-N,N-dimethylamino-ethoxycarbonyl) phenyl]methyl]-1H-benzimidazole-6-carboxylic acid morpholide (Compound No. 13) prepared in Example 6, 2-ethoxy-1-[[4'-(2"-morpholinoethoxycarbonyl)-phenyl]methyl]-1H-benzimidazole-6-carboxylic acid piperidinamide (Compound No. 57) prepared in Example 28, or the reference substance was forcibly orally administered to kidney disease model rats, and the action of lowering the blood pressure was observed. The kidney disease model rats were prepared by a ligature of branches of renal artery in accordance with a conventional method. Namely, the left hilum renalis of Sprague-Dawley female rats was exposed under anesthesia, and one of four secondary branches of the renal artery was left unligated, while the remaining three branches were ligated, respectively. After a week, the hilum renalis (artery, vein, and ureter) of the right kidney were further ligated to thereby prepare rats whose renal function was lowered to approximately 1/8 of the normal function. Each group consisted of eight rats. The drugs to be tested (20 mg/kg) were administered to each administering group, and only water was administered to a control group. Two days after the administration, the systolic blood pressure was measured by the tail cuff method using a blood pressure measuring apparatus (UR^5000; Ueda).

[2] = test system: kidney disease model rats; experiment: Action to kidney diseases, renal function indicatory values; format: in vivo, Sprague-Dawley female rats; settings: 20 mg/kg/day, two weeks
Procedure: The kidney disease model rats were prepared by a ligature of branches of renal artery in accordance with a conventional method. Namely, the left hilum renalis of Sprague-Dawley female rats was exposed under anesthesia, and one of four secondary branches of the renal artery was left unligated, while the remaining three branches were ligated, respectively. After a week, the hilum renalis (artery, vein, and ureter) of the right kidney were further ligated to thereby prepare rats whose renal function was lowered to approximately 1/8 of the normal function. Each group consisted of eight rats. The drugs to be tested (20 mg/kg) were administered to each administering group, and only water was administered to a control group. Two days after the administration, the systolic blood pressure was measured by the tail cuff method using a blood pressure measuring apparatus (UR^5000; Ueda).
In this Example, an action to kidney diseases was evaluated on the basis of a renal function indicatory value.
Fifteen groups (8 rats per group) were prepared in a manner such that there was no major difference between the groups in the serum creatinine value and the blood urea nitrogen value indicating renal function. The rats in each group were allowed to freely take up food and water. […] To the rats in the control group, only water was forcibly orally administered every day. After two weeks, 0.2 ml of blood was collected from the carotid artery of the rats under anesthesia, and centrifuged to obtain serum. Using 25 μl of the serum, the serum creatinine (Scr) was measured by a creatinine analytical instrument (Beckman). Using 10 μl of the serum, the blood urea nitrogen (BUN) was measured by a BUN analytical instrument (Beckman). The creatinine clearance was evaluated as follows:
After the serum creatinine measurement, rats were placed in urinary metabolic cages for 24 hours to collect urine. A urinary creatine concentration (Ucr) was measured by a creatinine analytical instrument, and a total volume of urination (Uvol) was also measured. The creatinine clearance (CCr) was calculated by the following formula: [formula]
In the above formula, the unit of "Ucr" and "Scr" is "mg/ml" and the unit of "Uvol" is "ml".

[3] = test system: kidney disease model rats; experiment: Survival time of kidney diseased animals; format: in vivo, Sprague-Dawley female rats; settings: 20 mg/kg/day; observation period eight weeks (upper limit); control 5.0
Procedure: as §1
In this Example, an action to survival time of kidney diseased animals was evaluated. As compounds to be examined, 2-ethoxy-1-[[4'-(2"-N,N-dimethylamino-ethoxycarbonyl)-phenyl]methyl]-1H-benzimidazole-6-carboxylic acid morpholide (Compound No. 13) prepared in Example 6, and 2-ethoxy-1-[[4'-(2"-morpholinoethoxycarbonyl)phenyl]methyl]-1H-benzimidazole-6-carboxylic acid piperidinamide (Compound No. 57) prepared in Example 28 were used.
The kidney disease model rats were prepared as in Example 38. Fifteen groups (8 rats per group) were prepared in a manner such that there was no major difference between the groups in the serum creatinine value and the blood urea nitrogen value indicating renal function. The rats in each group were allowed to freely take up food and water. […] To the rats in the control group, only water was forcibly orally administered every day. If kidney diseases are aggravated, the rat will die of uremia. Thus, the survival time was observed as a comprehensive indication of the improvement of the effect on the kidney diseases. The observation period was eight weeks. Thus if all rats survived, the average survival time is eight weeks, and is an upper limit.

[4] = test system: rat suffering from a kidney disease; settings: J. Clinical Invest., 90: 766-771, 1992; cited from earlier work
[5] = test system: rat suffering from hyperlipemia; settings: Nephron, 65: 426-432, 1993, cited from earlier work

In the case of `CCCCc1nc(Cl)c(CO)n1Cc1ccc(-c2ccccc2-c2nnn[nH]2)cc1` [DuP753, 2-butyl-4-chloro-5-(hydroxymethyl)-1-[[2'-(1H-tetrazole-5-yl)biphenyl-4-yl]methyl]imidazole, reference compound], the “action of lowering the blood pressure” value ([1]; in comparison with the control group) is reported as “clearly exhibited the action of lowering the blood pressure”, the Blood pressure ([1]; systolic, tail cuff, average, two days after administration, control 210) is reported as 130 mmHg and the Creatinine clearance ([2]; control 0.22) is reported as 0.32 mL/min. The Creatinine ([2]; serum, control 2.0) was 1.6 mg/dL, the Blood urea nitrogen ([2]; serum, control 100) was 80 mg/dL and the Average survival time [3] was 6.9 weeks. For the same molecule, the “effect in proteinuria and glomerulosclerosis” value [4] was “effective in proteinuria and glomerulosclerosis”, the “lowering of the blood pressure” value [4] was “explicit lowering of the blood pressure” and the “lowering of the blood pressure” value ([5]; higher dose) was “explicit lowering of the blood pressure”. The renal lesion ([5]; higher dose) was “more effective in the renal lesion”, the “influence on the blood pressure” value ([5]; lower dose) was “without a substantial influence on the blood pressure” and the renal lesion ([5]; lower dose) was “renal lesion is improved”.

Source: patent publication US6242445A, “Benzimidazole derivative” (Kureha Chemical Industry Co., Ltd., priority 1998, dated 2001)
